Results as given in US20210032345A1, “ANTI-PD-L1 ANTIBODIES, COMPOSITIONS AND ARTICLES OF MANUFACTURE” (Genentech, Inc., priority 2008, published 2021).

Biological target: PD-L1
Test: FACS binding, rat
Conditions: half-maximal binding
Protocol: All samples were run on a […] FACSCalibur and Mean Fluorescence Intensity of PD-L1 binding data as a function of anti-PD-L1 antibody concentration was analyzed using Tree Star, Inc. FlowJo® software; EC50, values (Ab concentration associated with half-maximal binding) were calculated using Kaleidagraph. In addition, equilibrium binding studies were performed to define accurate affinities (Kds) for YW24355570 binding to human and mouse PD-L1 expressed on 293 cells (Example 3B).

In the case of “YW243.55.S70: affinity-matured phage anti-PD-L1 antibody derived from YW243.55, selected as the primary candidate; full length IgG1”, the EC50 is reported as 0.8 nM.
